Measurements reported in patent US11857560B2, “Pharmaceutical compositions comprising substituted nucleotides and nucleosides for treating viral infections” (priority 2013, dated 2024).

Legend:
Cytotoxicity panel, CEM = details: human, CEM cells, Cytotoxicity (CC50 uM) CEM
[1] = Cytotoxicity panel, HepG2; details: human, HepG2 cells
Cytotoxicity panel, H9c = assay type: cell-based; details: rat, H9c cells
[2] = Cytotoxicity panel, Huh-7; details: human, Huh-7 cells, Cytotoxicity (CC50 uM) Huh-7, Huh-7
[3] = Cytotoxicity panel, BxPC3; details: human, BxPC3 cells
Cytotoxicity panel, A204 = assay type: cell-based; details: human, A204 cells
[4] = Cellular toxicity in parallel with HCV replicon assay (XTT); details: human
[5] = Toxicity in Huh-7 cells (Dengue assay); details: human, Huh-7 cells
Dengue Type 2 [6] = assay: Anti-Dengue virus cytoprotection assay, Huh-7 cells; details: Huh-7, read-out: Dengue Type 2 Huh-7 Cells (EC50 uM)
[7] = Toxicity in Vero cells (Dengue assay); details: African green monkey
Dengue Type 2 [8] = assay: Anti-Dengue virus cytoprotection assay, Vero cells; details: read-out: Dengue Type 2 Vero Cells (EC50 uM)
CEM = assay: Cytotoxicity panel, CEM; details: read-out: Cytotoxicity (CC50 uM) CEM
[9] = Cytotoxicity in GT1b replicon cells; assay type: cell-based

CC(C)OC(=O)[C@H](C)NP(=O)(OC[C@H]1O[C@@H](n2ccc(=O)[nH]c2=O)[C@](C)(O)C1O)Oc1ccccc1 (some centres unmarked) [ENUC-01982-1]
CC50 (Cytotoxicity panel, CEM): 150 µM
CC50 [1]: 159 µM
CC50 (Cytotoxicity panel, H9c): 31 µM
CC50 [2]: 65 µM
CC50 [3]: 157 µM
CC50 (Cytotoxicity panel, A204): 124 µM

C[C@@]1(O)C(O)[C@@H](COP(=O)(O)O)O[C@H]1n1ccc(=O)[nH]c1=S (some centres unmarked) [ENUC-01984-1]
CC50 (Cytotoxicity panel, CEM): > 400 µM
CC50 [1]: > 400 µM
CC50 at 72 h [4]: > 100 µM
CC50 [2]: > 400 µM

C[C@H](NP(=O)(O)OC[C@H]1O[C@@H](n2ccc(=O)[nH]c2=S)[C@](C)(O)C1O)C(=O)O (some centres unmarked) [ENUC-01997-1]
CC50 (Cytotoxicity panel, CEM): > 400 µM
CC50 [1]: > 400 µM
CC50 at 72 h [4]: > 100 µM
CC50 [2]: > 400 µM

CC(C)OC(=O)[C@H](C)N[P@@](=O)(OC[C@H]1O[C@@H](n2ccc(=O)[nH]c2=S)[C@](C)(O)C1O)Oc1ccccc1 (some centres unmarked) [ENUC-02024-1]
CC50 (Cytotoxicity panel, CEM): > 400 µM
CC50 [1]: > 400 µM
CC50 [2]: > 400 µM

CC(C)OC(=O)[C@H](C)N[P@@](=O)(OC[C@H]1O[C@@H](n2ccc(=O)[nH]c2=S)[C@](C)(O)C1O)Oc1ccccc1 (some centres unmarked) [ENUC-02024]
CC50 [5]: > 100 µM
EC50 (Dengue Type 2 [6]): 24.9 µM
CC50 [7]: > 100 µM
EC50 (Dengue Type 2 [8]): 56.2 µM

CC(C)OC(=O)[C@H](C)N[P@](=O)(OC[C@H]1O[C@@H](n2ccc(=O)[nH]c2=O)[C@](C)(F)C1O)Oc1ccccc1 (some centres unmarked) [ENUC-02025-1]
CC50 (Cytotoxicity panel, CEM): > 400 µM
CC50 [1]: 365 µM
CC50 [2]: 279 µM

CC(C)OC(=O)[C@H](C)N[P@@](=O)(OC[C@H]1O[C@@H](n2ccc(=O)[nH]c2=O)[C@](C)(F)C1O)Oc1ccccc1 (some centres unmarked) [ENUC-02026-1]
CC50 (Cytotoxicity panel, CEM): > 400 µM
CC50 [1]: > 400 µM
CC50 [2]: > 400 µM

CC(C)OC(=O)[C@H](C)NP(=O)(OC[C@H]1O[C@@H](n2ccc(=O)[nH]c2=[Se])[C@](C)(O)C1O)Oc1ccccc1 (some centres unmarked) [ENUC-02058-1]
CC50 [1]: > 400 µM
CC50 [2]: > 100 µM

C#C[C@]1(COP(=O)(N[C@@H](C)C(=O)OC(C)C)Oc2ccccc2)O[C@@H](n2ccc(=O)[nH]c2=S)[C@@H](O)C1O (some centres unmarked) [ENUC-02069-1]
CC50 [5]: > 100 µM
CC50 (Cytotoxicity panel, CEM): > 400 µM
CC50 [1]: > 400 µM
EC50 (Dengue Type 2 [6]): > 100 µM
CC50 [2]: > 400 µM

CC(C)OC(=O)[C@H](C)NP(=O)(OC[C@H]1O[C@@H](n2ccc(=S)[nH]c2=O)[C@@H](O)C1O)Oc1ccccc1 (some centres unmarked) [ENUC-02071-1]
CC50 (Cytotoxicity panel, CEM): 241 µM
CC50 (CEM): > 400 µM
CC50 at 72 h [4]: > 100 µM
CC50 [2]: 381 µM

CC(C)OC(=O)[C@H](C)NP(=O)(OC[C@H]1O[C@@H](n2ccc(=O)[nH]c2=S)[C@@H](O)C1O)Oc1ccccc1 (some centres unmarked) [ENUC-02071-2]
CC50 at 72 h [4]: > 100 µM

CC(C)OC(=O)[C@H](C)NP(=O)(OC[C@H]1O[C@@H](n2ccc(=O)[nH]c2=S)[C@@H](O)C1O)Oc1ccccc1 (some centres unmarked) [ENUC-02072-1]
CC50 (Cytotoxicity panel, CEM): > 400 µM
CC50 [1]: > 400 µM
CC50 [2]: > 400 µM

CC(C)OC(=O)[C@H](C)NP(=O)(OC[C@H]1O[C@@H](n2ccc(=O)[nH]c2=S)[C@@H](C)C1O)Oc1ccccc1 (some centres unmarked) [ENUC-02078-1]
CC50 [5]: > 100 µM
CC50 (Cytotoxicity panel, CEM): 259 µM
CC50 [1]: > 400 µM
EC50 (Dengue Type 2 [6]): 6.07 µM
CC50 [2]: > 400 µM

CC(C)OC(=O)[C@H](C)NP(=O)(OC[C@@]1(N=[N+]=[N-])O[C@@H](n2ccc(=S)[nH]c2=O)[C@@H](O)C1O)Oc1ccccc1 (some centres unmarked) [ENUC-02083-1]
CC50 [5]: > 100 µM
CC50 (Cytotoxicity panel, CEM): 229 µM
CC50 [1]: > 400 µM
EC50 (Dengue Type 2 [6]): 4.82 µM
CC50 at 72 h [4]: > 100 µM

CC(C)OC(=O)[C@H](C)N[P@](=O)(OC[C@H]1O[C@@H](n2ccc(=O)[nH]c2=O)[C@](C)(F)C1O)Oc1ccccc1 (some centres unmarked) [GS-7977, reference compound]
CC50 [9]: > 2 µM
